These results are taken from patent US5858994A, “Carbohydrate conjugates as inhibitors of cell adhesion” (priority 1994, dated 1999).

For assay [1], the target named is T1, E-Selectin (Homo sapiens, UniProt P16581).
T1 sequence (P16581 22-556): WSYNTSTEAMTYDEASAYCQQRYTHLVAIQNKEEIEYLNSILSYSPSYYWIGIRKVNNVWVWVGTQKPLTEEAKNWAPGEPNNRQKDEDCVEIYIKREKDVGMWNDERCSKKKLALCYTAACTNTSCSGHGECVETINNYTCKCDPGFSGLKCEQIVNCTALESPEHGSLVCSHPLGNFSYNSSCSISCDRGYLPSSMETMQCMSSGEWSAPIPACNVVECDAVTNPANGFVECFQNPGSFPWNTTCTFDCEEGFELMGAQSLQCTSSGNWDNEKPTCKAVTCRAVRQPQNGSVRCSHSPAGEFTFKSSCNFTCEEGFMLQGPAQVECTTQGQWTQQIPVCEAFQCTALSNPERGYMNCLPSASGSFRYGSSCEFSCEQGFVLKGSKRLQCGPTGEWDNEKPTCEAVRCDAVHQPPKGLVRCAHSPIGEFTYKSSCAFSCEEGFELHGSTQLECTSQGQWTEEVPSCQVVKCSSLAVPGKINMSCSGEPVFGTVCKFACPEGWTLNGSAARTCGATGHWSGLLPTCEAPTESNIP
The experiment in a line: Inhibition of HL60 cell adhesion to soluble, recombinant E-selectin (E-selectin-IgG1 fusion protein). Type of assay: cell-based. From the text: (§1) Carrying out these assays to measure the inhibitory activity of the compounds according to the invention on cell adhesion of promyelocytic cells by means of selecting is described in detail in European Published Application EP 0 601 417.
(§2) In order to test the efficacy of the carbohydrate conjugates on the interaction between the E- and P-selectins (former nomenclature ELAM-1 or GMP-140) with their ligands, an assay is used which in each case is specific only for one of these interactions. The ligands are supplied in their natural form as surface structures on promyelocytic HL60 cells. Since HL60 cells contain ligands and adhesion molecules of very different specificity, the desired specificity of the assay can only be produced by means of the binding component. The binding components used were genetically prepared soluble fusion proteins from the in each case extracytoplasmatic domains of E- or P-selectin and the constant region of a human immunoglobulin of the IgG1 subclass.
Preparation of L-selectin-IgG1
For the preparation of soluble L-selectin-IgG1 fusion protein, the genetic construct "ELAM-Rg" published by Walz et al., 1990 was used.
For expression, the plasmid DNA was transfected in COS-7 cells (ATCC) by means of DEAE-dextran (Molecular Biology Methods: see Ausubel, F. M., Brent, R., Kingston, R. E., Moore, D. D., Seidman, J. G., Struhl, K. and Smith, J. A. 1990. Current Protocols in Molecular Biology, John Wiley, New York). Seven days after transfection, the culture supernatant is recovered, freed from cells and cell fragments by centrifugation and transferred to 25 mM HEPES pH 7.0, 0.3 mM PMSF, 0.02% sodium azide and stored at +4° C.
(§3) 1. 96-well microtiter test plates (Nunc Maxisorb) are incubated at room temperature for 2 hours with 100 μl of a goat anti-human IgG antibody (Sigma) diluted (1+100) in 50 mM Tris pH 9.5. After removing the antibody solution washing is carried out once with PBS.
(§4) 2. 150 μl of the blocking buffer are left in the wells at room temperature for 1 hour. The composition of the blocking buffer is: 0.1% gelatin, 1% BSA, 5% calf serum, 0.2 mM PMSF, 0.02% sodium azide. After removing the blocking buffer washing is carried out once with PBS.
(§5) 3. 100 μl each of cell culture supernatant of appropriately transfected and expressing COS cells are pipetted into the wells. Incubation is carried out at room temperature for 2 hours. After removing the cell culture supernatant washing is carried out once with PBS.
(§6) 4. 20 μl of binding buffer are added to the wells. The binding buffer has the composition: 50 mM HEPES, pH 7.5; 100 mM NaCl; 1 mg/ml BSA; 2 mM MgCl2; 1 mM CaCl2; 3 mM MnCl2; 0.02% sodium azide; 0.2 mM PMSF. 5 μl of the test substance are pipetted into this, mixed by swirling the plate and incubated at room temperature for 10 minutes.
(§7) 5. 50 ml of an HL60 cell culture containing 200,000 cells/ml are centrifuged at 350 g for 4 minutes. The pellet is resuspended in 10 ml of RPMI 1640 and the cells are centrifuged again. For labeling the cells, 50 μg of BCECF-AM (Molecular Probes) are dissolved in 5 μl of anhydrous DMSO; 1.5 ml of RPMI 1640 are then added to the BCECF-AM/DMSO solution. The cells are resuspended using this solution and incubated at 37° C. for 30 minutes. After centrifugation at 350 g for 2 minutes, the labeled cell pellet is resuspended in 11 ml of binding buffer and the resuspended cells are distributed into the microtiter plate wells in 100 μl aliquots. The plate is allowed to stand at room temperature for 10 minutes in order to allow the cells to sediment on the bottom of the test plate. In the course of this, the cells have the opportunity to adhere to the coated plastic.
(§8) 6. To stop the test, the microtiter plate is immersed completely in the stop buffer (25 mM tris, pH 7.5; 125 mM NaCl; 0.1% BSA; 2 mM MgCl2; 1 mM CaCl2; 3 mM MnCl2; 0.02% sodium azide) at an angle of 45°. The stop buffer is removed from the wells by inversion and the procedure is repeated a further two times.

The target of assay [2] is T2, P-Selectin (Homo sapiens, UniProt P16109).
T2 sequence (P16109 42-771): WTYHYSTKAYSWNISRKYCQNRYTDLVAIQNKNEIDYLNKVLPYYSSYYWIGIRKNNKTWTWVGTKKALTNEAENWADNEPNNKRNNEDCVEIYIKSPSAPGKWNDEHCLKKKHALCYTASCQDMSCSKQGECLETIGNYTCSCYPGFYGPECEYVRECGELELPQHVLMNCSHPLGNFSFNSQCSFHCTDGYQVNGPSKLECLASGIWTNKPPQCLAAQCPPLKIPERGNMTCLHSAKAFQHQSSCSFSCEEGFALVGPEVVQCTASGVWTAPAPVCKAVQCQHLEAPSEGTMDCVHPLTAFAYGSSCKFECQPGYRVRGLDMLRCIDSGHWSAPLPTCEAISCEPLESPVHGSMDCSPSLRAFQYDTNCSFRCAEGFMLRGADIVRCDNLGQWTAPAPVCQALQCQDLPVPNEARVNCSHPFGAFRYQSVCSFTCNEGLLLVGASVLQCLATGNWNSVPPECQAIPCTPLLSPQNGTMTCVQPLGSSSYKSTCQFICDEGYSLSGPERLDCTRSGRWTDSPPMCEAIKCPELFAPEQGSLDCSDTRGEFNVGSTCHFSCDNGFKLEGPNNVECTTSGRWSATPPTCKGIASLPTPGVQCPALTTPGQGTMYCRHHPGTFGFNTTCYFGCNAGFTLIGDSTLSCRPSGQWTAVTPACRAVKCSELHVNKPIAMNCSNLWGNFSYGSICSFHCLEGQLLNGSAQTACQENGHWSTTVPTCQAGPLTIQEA
Description: Inhibition of HL60 cell adhesion to soluble, recombinant P-selectin (P-selectin-IgG1 fusion protein). Type of assay: cell-based.
Source text: as §1, §2
Preparation of P-selectin-IgG1
For preparation of the soluble P-selectin-IgG1 fusion protein, the genetic construct "ICD62Rg" published by Aruffo et al., 1991 is used. The further procedure corresponds to the preparation of L-selectin-IgG1 presented under A1.
as §3, §4, §5, §6, §7, §8
7. Measurement of the BCECF-AM-labeled cells firmly adhering to the wells is carried out in a cytofluorimeter (Millipore) at a sensitivity setting of 4, an excitation wavelength of 485/220 nm and an emission wavelength of 530/250 nm.

[3] abbreviates: inhibition of HL60 cell adhesion to soluble, recombinant adhesion molecules, read-out: IC50 E-Selectin.
[4] abbreviates: inhibition of HL60 cell adhesion to soluble, recombinant adhesion molecules, read-out: IC50 P-Selectin.

Read-outs that look alike come from different tables or passages of the source.

As a reminder, the IC50 is the concentration needed to halve the response being measured. Consider `CC(=O)N[C@@H]1[C@@H](O[C@@H]2O[C@@H](C)[C@@H](O)[C@@H](O)[C@@H]2O)[C@H](O[C@@H]2O[C@H](CO)[C@H](O)[C@H](O[C@]3(C(=O)O)C[C@H](O)[C@@H](NC(C)=O)[C@H]([C@H](O)[C@H](O)CO)O3)[C@H]2O)[C@@H](CO)O[C@H]1NC(=O)[C@H](C)NC(=O)[C@H](CC(=O)O)NC(=O)CNC(=O)[C@@H](N)CCCNC(=N)N` [Compound I-2], for which the results for the IC50 in assay [1] and in assay [2] were > 800 µM and 10 µM, respectively. Turning to `CC(=O)N[C@H]1[C@H](OCCCCCCNC(=O)[C@@H](N)CCC(=O)O)O[C@H](CO)[C@@H](O[C@@H]2O[C@H](CO)[C@H](O)[C@H](O[C@]3(C(=O)O)C[C@H](O)[C@@H](NC(C)=O)[C@H]([C@H](O)[C@H](O)CO)O3)[C@H]2O)[C@@H]1O[C@@H]1O[C@@H](C)[C@@H](O)[C@@H](O)[C@@H]1O` [Compound I-6], in assay [1] (setting [3]), the IC50 turned out to be 1200 µM. Take `CC(=O)N[C@H]1[C@H](OCCCCCCNC(=O)CCC(=O)O)O[C@H](CO)[C@@H](O[C@@H]2O[C@H](CO)[C@H](O)[C@H](O[C@]3(C(=O)O)C[C@H](O)[C@@H](NC(C)=O)[C@H]([C@H](O)[C@H](O)CO)O3)[C@H]2O)[C@@H]1O[C@@H]1O[C@@H](C)[C@@H](O)[C@@H](O)[C@@H]1O` [Compound I-7]: the IC50 in assay [2] (setting [4]) came out at 1500 µM. Still for that read-out and setting: the value for `CC(=O)N[C@H]1[C@H](OCCCCCCNC(=O)C2CCC(CN3C(=O)C=CC3=O)CC2)O[C@H](CO)[C@@H](O[C@@H]2O[C@H](CO)[C@H](O)[C@H](O[C@]3(C(=O)O)C[C@H](O)[C@@H](NC(C)=O)[C@H]([C@H](O)[C@H](O)CO)O3)[C@H]2O)[C@@H]1O[C@@H]1O[C@@H](C)[C@@H](O)[C@@H](O)[C@@H]1O` (stereo partly shown) [Compound I-9] was 330 µM. Turning to `CC(=O)N[C@H]1[C@H](OCCCCCCNC(=O)CCSSc2ccccn2)O[C@H](CO)[C@@H](O[C@@H]2O[C@H](CO)[C@H](O)[C@H](O[C@]3(C(=O)O)C[C@H](O)[C@@H](NC(C)=O)[C@H]([C@H](O)[C@H](O)CO)O3)[C@H]2O)[C@@H]1O[C@@H]1O[C@@H](C)[C@@H](O)[C@@H](O)[C@@H]1O` [Compound I-10], the IC50 in assay [1] (setting [3]) was 390 µM; in assay [2] (setting [4]) it was 400 µM. For the molecule `CC(=O)N[C@H]1[C@H](OCCCCCCNC(=O)CCCC[C@@H]2SC[C@@H]3NC(=O)N[C@@H]32)O[C@H](CO)[C@@H](O[C@@H]2O[C@H](CO)[C@H](O)[C@H](O[C@]3(C(=O)O)C[C@H](O)[C@@H](NC(C)=O)[C@H]([C@H](O)[C@H](O)CO)O3)[C@H]2O)[C@@H]1O[C@@H]1O[C@@H](C)[C@@H](O)[C@@H](O)[C@@H]1O` [Compound I-11], the IC50 in assay [2] (setting [4]) came to 600 µM. As for `CSCC[C@H](NC=O)C(=O)N[C@@H](CC(C)C)C(=O)N[C@@H](Cc1ccccc1)C(=O)NCCCCCCO[C@@H]1O[C@H](CO)[C@@H](O[C@@H]2O[C@H](CO)[C@H](O)[C@H](O[C@]3(C(=O)O)C[C@H](O)[C@@H](NC(C)=O)[C@H]([C@H](O)[C@H](O)CO)O3)[C@H]2O)[C@H](O[C@@H]2O[C@@H](C)[C@@H](O)[C@@H](O)[C@@H]2O)[C@H]1NC(C)=O` [Compound I-12], the IC50 in assay [1] (setting [3]) and in assay [2] (setting [4]) was > 800 µM each time. `CCCCCCCCCCCCCCCC(=O)N[C@@H](CSCC(COC(=O)CCCCCCCCCCCCCCC)OC(=O)CCCCCCCCCCCCCCC)C(=O)NCCCCCCO[C@@H]1O[C@H](CO)[C@@H](O[C@@H]2O[C@H](CO)[C@H](O)[C@H](O[C@]3(C(=O)O)C[C@H](O)[C@@H](NC(C)=O)[C@H]([C@H](O)[C@H](O)CO)O3)[C@H]2O)[C@H](O[C@@H]2O[C@@H](C)[C@@H](O)[C@@H](O)[C@@H]2O)[C@H]1NC(C)=O` (stereo partly shown) [Compound I-13]: the values for the IC50 in assay [1] (setting [3]) and in assay [2] (setting [4]) were 20 µM and 100 µM, respectively. On to `CC(=O)N[C@H]1[C@H](OCCCCCCN)O[C@H](CO)[C@@H](O[C@@H]2O[C@H](CO)[C@H](O)[C@H](O[C@]3(C(=O)O)C[C@H](O)[C@@H](NC(C)=O)[C@H]([C@H](O)[C@H](O)CO)O3)[C@H]2O)[C@@H]1O[C@@H]1O[C@@H](C)[C@@H](O)[C@@H](O)[C@@H]1O` [III (n = 6), reference compound], for which, in assay [2] (setting [4]), the IC50 amounted to 2000 µM.
